Data from PubChem BioAssay (NCI).
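48-hour exposure; five concentrations; linearly interpolated endpoints. TGI denotes the concentration required for complete inhibition of growth.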

Tests used:
Experiment in all cases: NCI anticancer screen, dose series, 48 h
RXF 393 renal = tested on: RXF 393 renal
UACC-62 melanoma = tested on: UACC-62 melanoma
UO-31 renal = tested on: UO-31 renal
TK-10 renal = tested on: TK-10 renal
NCI/ADR-RES ovarian = tested on: NCI/ADR-RES ovarian
SK-MEL-2 melanoma = tested on: SK-MEL-2 melanoma
MDA-MB-435 = tested on: MDA-MB-435
HOP-62 NSCLC = tested on: HOP-62 NSCLC
OVCAR-8 ovarian = tested on: OVCAR-8 ovarian
HOP-92 NSCLC = tested on: HOP-92 NSCLC
A498 renal = tested on: A498 renal
SNB-19 CNS = tested on: SNB-19 CNS
SK-MEL-28 melanoma = tested on: SK-MEL-28 melanoma
ACHN renal = tested on: ACHN renal
OVCAR-4 ovarian = tested on: OVCAR-4 ovarian
NCI-H226 lung = tested on: NCI-H226 lung
NCI-H23 lung = tested on: NCI-H23 lung
HS 578T breast = tested on: HS 578T breast
LOX IMVI melanoma = tested on: LOX IMVI melanoma
MDA-MB-231 breast = tested on: MDA-MB-231 breast
A549 NSCLC = tested on: A549 NSCLC
M14 melanoma = tested on: M14 melanoma
MALME-3M melanoma = tested on: MALME-3M melanoma
MOLT-4 leukemia = tested on: MOLT-4 leukemia
786-0 renal = tested on: 786-0 renal
EKVX NSCLC = tested on: EKVX NSCLC
K-562 leukemia = tested on: K-562 leukemia
DU-145 prostate = tested on: DU-145 prostate
CAKI-1 renal = tested on: CAKI-1 renal
SW-620 colon = tested on: SW-620 colon
SF-295 CNS = tested on: SF-295 CNS
MCF7 breast = tested on: MCF7 breast
U251 CNS = tested on: U251 CNS
OVCAR-3 ovarian = tested on: OVCAR-3 ovarian
SN12C renal = tested on: SN12C renal
OVCAR-5 ovarian = tested on: OVCAR-5 ovarian
SF-268 CNS = tested on: SF-268 CNS
PC-3 prostate = tested on: PC-3 prostate
HCT-15 colon = tested on: HCT-15 colon
HCT-116 colon = tested on: HCT-116 colon
HL-60(TB) leukemia = tested on: HL-60(TB) leukemia
BT-549 breast = tested on: BT-549 breast
NCI-H522 lung = tested on: NCI-H522 lung
IGROV1 ovarian = tested on: IGROV1 ovarian
MDA-N = tested on: MDA-N
KM12 colon = tested on: KM12 colon
SK-MEL-5 melanoma = tested on: SK-MEL-5 melanoma
CCRF-CEM leukemia = tested on: CCRF-CEM leukemia
HT29 colon = tested on: HT29 colon
NCI-H460 lung = tested on: NCI-H460 lung
SK-OV-3 ovarian = tested on: SK-OV-3 ovarian
COLO 205 colon = tested on: COLO 205 colon
T-47D breast = tested on: T-47D breast
UACC-257 melanoma = tested on: UACC-257 melanoma

`C#C[C@]1(O)CC[C@H]2[C@@H]3CCC4=CC(=NCCOC(=O)c5cccc6c(=O)c7ccccc7[nH]c56)CC[C@@H]4[C@H]3CC[C@@]21C` was tested, and the TGI (RXF 393 renal) was 43.2 µM, the TGI (UACC-62 melanoma) was > 100 µM and the TGI (UO-31 renal) was > 100 µM. For the same molecule, the TGI (TK-10 renal) was > 100 µM, the TGI (NCI/ADR-RES ovarian) was > 100 µM and the TGI (SK-MEL-2 melanoma) was 95.6 µM. The TGI (MDA-MB-435) was > 100 µM, the TGI (HOP-62 NSCLC) was > 100 µM and the TGI (OVCAR-8 ovarian) was 48.9 µM. For the same molecule, the TGI (HOP-92 NSCLC) was 89.6 µM, the TGI (A498 renal) was > 100 µM and the TGI (SNB-19 CNS) was > 100 µM. For the same molecule, the TGI (SK-MEL-28 melanoma) was > 100 µM, the TGI (ACHN renal) was > 100 µM and the TGI (OVCAR-4 ovarian) was > 100 µM. For the same molecule, the TGI (NCI-H226 lung) was > 100 µM, the TGI (NCI-H23 lung) was > 100 µM and the TGI (HS 578T breast) was > 100 µM. The TGI (LOX IMVI melanoma) was 84 µM, the TGI (MDA-MB-231 breast) was 72.6 µM and the TGI (A549 NSCLC) was > 100 µM. The TGI (M14 melanoma) was > 100 µM, the TGI (MALME-3M melanoma) was 91.1 µM and the TGI (MOLT-4 leukemia) was > 100 µM. The TGI (786-0 renal) was > 100 µM, the TGI (EKVX NSCLC) was > 100 µM and the TGI (K-562 leukemia) was > 100 µM. The TGI (DU-145 prostate) was > 100 µM, the TGI (CAKI-1 renal) was > 100 µM and the TGI (SW-620 colon) was > 100 µM. For the same molecule, the TGI (SF-295 CNS) was > 100 µM, the TGI (MCF7 breast) was > 100 µM and the TGI (U251 CNS) was 51.4 µM. For the same molecule, the TGI (OVCAR-3 ovarian) was > 100 µM, the TGI (SN12C renal) was > 100 µM and the TGI (OVCAR-5 ovarian) was > 100 µM. The TGI (SF-268 CNS) was > 100 µM, the TGI (PC-3 prostate) was 55 µM and the TGI (HCT-15 colon) was > 100 µM. The TGI (HCT-116 colon) was > 100 µM, the TGI (HL-60(TB) leukemia) was > 100 µM and the TGI (BT-549 breast) was > 100 µM. The TGI (NCI-H522 lung) was > 100 µM, the TGI (IGROV1 ovarian) was > 100 µM and the TGI (MDA-N) was > 100 µM. The TGI (KM12 colon) was > 100 µM, the TGI (SK-MEL-5 melanoma) was > 100 µM and the TGI (CCRF-CEM leukemia) was > 100 µM. For the same molecule, the TGI (HT29 colon) was > 100 µM, the TGI (NCI-H460 lung) was > 100 µM and the TGI (SK-OV-3 ovarian) was > 100 µM. For the same molecule, the TGI (COLO 205 colon) was > 100 µM, the TGI (T-47D breast) was 78.1 µM and the TGI (UACC-257 melanoma) was > 100 µM.

In the case of `C#C[C@]1(O)CC[C@H]2[C@@H]3CCC4=CC(=NCCOC(=O)c5cccc6cc7ccccc7nc56)CC[C@@H]4[C@H]3CC[C@@]21C`, the TGI (RXF 393 renal) is reported as 28.3 µM, the TGI (UACC-62 melanoma) is reported as 96.1 µM and the TGI (UO-31 renal) is reported as > 100 µM. For the same molecule, the TGI (TK-10 renal) was > 100 µM, the TGI (NCI/ADR-RES ovarian) was 81.3 µM and the TGI (SK-MEL-2 melanoma) was 53.9 µM. For the same molecule, the TGI (MDA-MB-435) was > 100 µM, the TGI (HOP-62 NSCLC) was > 100 µM and the TGI (OVCAR-8 ovarian) was 21.9 µM. For the same molecule, the TGI (HOP-92 NSCLC) was 48.6 µM, the TGI (A498 renal) was > 100 µM and the TGI (SNB-19 CNS) was > 100 µM. The TGI (SK-MEL-28 melanoma) was > 100 µM, the TGI (ACHN renal) was > 100 µM and the TGI (OVCAR-4 ovarian) was > 100 µM. The TGI (NCI-H226 lung) was > 100 µM, the TGI (NCI-H23 lung) was 62.5 µM and the TGI (HS 578T breast) was 63.8 µM. The TGI (LOX IMVI melanoma) was 24.8 µM, the TGI (MDA-MB-231 breast) was 44.8 µM and the TGI (A549 NSCLC) was > 100 µM. The TGI (M14 melanoma) was 61.3 µM, the TGI (MALME-3M melanoma) was 74.4 µM and the TGI (MOLT-4 leukemia) was > 100 µM. For the same molecule, the TGI (786-0 renal) was > 100 µM, the TGI (EKVX NSCLC) was > 100 µM and the TGI (K-562 leukemia) was > 100 µM. For the same molecule, the TGI (DU-145 prostate) was > 100 µM, the TGI (CAKI-1 renal) was > 100 µM and the TGI (SW-620 colon) was > 100 µM. The TGI (SF-295 CNS) was 67.6 µM, the TGI (MCF7 breast) was 69.4 µM and the TGI (U251 CNS) was 25.2 µM. The TGI (OVCAR-3 ovarian) was > 100 µM, the TGI (SN12C renal) was > 100 µM and the TGI (OVCAR-5 ovarian) was > 100 µM. For the same molecule, the TGI (SF-268 CNS) was 72.3 µM, the TGI (PC-3 prostate) was 34.9 µM and the TGI (HCT-15 colon) was 43.1 µM. For the same molecule, the TGI (HCT-116 colon) was > 100 µM, the TGI (HL-60(TB) leukemia) was > 100 µM and the TGI (BT-549 breast) was 74.2 µM. For the same molecule, the TGI (NCI-H522 lung) was 45.6 µM, the TGI (IGROV1 ovarian) was 30.8 µM and the TGI (MDA-N) was > 100 µM. The TGI (KM12 colon) was 97.2 µM, the TGI (SK-MEL-5 melanoma) was > 100 µM and the TGI (CCRF-CEM leukemia) was > 100 µM. For the same molecule, the TGI (HT29 colon) was > 100 µM, the TGI (NCI-H460 lung) was 35.8 µM and the TGI (SK-OV-3 ovarian) was > 100 µM. The TGI (COLO 205 colon) was > 100 µM, the TGI (T-47D breast) was 75.9 µM and the TGI (UACC-257 melanoma) was > 100 µM.
